Data reported in the NIST ThermoML archive (doi:10.1021/je060271a).
Values joined by “and” are separate entries in the source; they are usually repeats but may differ in a detail not shown here. Identical values can stand only once. Numbers after ± are expanded uncertainties.

Details: 283.15 K, Liquid, Vibrating tube method

## CCCCCC(=O)OCC(COC(=O)CCCCC)(COC(=O)CCCCC)COC(=O)CCCCC [pentaerythritol tetrahexanoate]
15225 kPa
  mass density: 1012.8 ± 1.2 kg/m3
15241 kPa
  mass density: 1012.9 ± 1.2 kg/m3
15260 kPa
  mass density: 1012.8 ± 1.2 kg/m3
15276 kPa
  mass density: 1012.7 ± 1.2 kg/m3
15292 kPa
  mass density: 1012.8 ± 1.2 kg/m3
15311 kPa
  mass density: 1012.8 ± 1.2 kg/m3
15327 kPa
  mass density: 1013 ± 1.2 kg/m3
15343 kPa
  mass density: 1012.8 ± 1.2 kg/m3
15363 kPa
  mass density: 1012.9 ± 1.2 kg/m3
15379 kPa
  mass density: 1013.1 ± 1.2 kg/m3
15395 kPa
  mass density: 1012.9 ± 1.2 kg/m3
15412 kPa
  mass density: 1013 ± 1.2 kg/m3
15432 kPa
  mass density: 1012.9 ± 1.2 kg/m3
15448 kPa
  mass density: 1012.9 ± 1.2 kg/m3
15467 kPa
  mass density: 1013.1 ± 1.2 kg/m3
15483 kPa
  mass density: 1013.1 ± 1.2 kg/m3
15500 kPa
  mass density: 1013.1 ± 1.2 kg/m3
15519 kPa
  mass density: 1012.8 ± 1.2 kg/m3
15536 kPa
  mass density: 1013.1 ± 1.2 kg/m3
15552 kPa
  mass density: 1012.9 ± 1.2 kg/m3
15572 kPa
  mass density: 1013 ± 1.2 kg/m3
15589 kPa
  mass density: 1013 ± 1.2 kg/m3
15606 kPa
  mass density: 1013 ± 1.2 kg/m3
15626 kPa
  mass density: 1013 ± 1.2 kg/m3
15642 kPa
  mass density: 1013.1 ± 1.2 kg/m3
15659 kPa
  mass density: 1012.9 ± 1.2 kg/m3
15679 kPa
  mass density: 1013 ± 1.2 kg/m3
15696 kPa
  mass density: 1013.1 ± 1.2 kg/m3
15713 kPa
  mass density: 1013.1 ± 1.2 kg/m3
15733 kPa
  mass density: 1013 ± 1.2 kg/m3
15750 kPa
  mass density: 1013.1 ± 1.2 kg/m3
15767 kPa
  mass density: 1013.1 ± 1.2 kg/m3
15788 kPa
  mass density: 1013 ± 1.2 kg/m3
15805 kPa
  mass density: 1013.2 ± 1.2 kg/m3
15823 kPa
  mass density: 1013.2 ± 1.2 kg/m3
15841 kPa
  mass density: 1013.2 ± 1.2 kg/m3
15861 kPa
  mass density: 1013.1 ± 1.2 kg/m3
15878 kPa
  mass density: 1013.2 ± 1.2 kg/m3
16066 kPa
  mass density: 1013.4 ± 1.2 kg/m3
16083 kPa
  mass density: 1013.3 ± 1.2 kg/m3
16104 kPa
  mass density: 1013.4 ± 1.2 kg/m3
16122 kPa
  mass density: 1013.3 ± 1.2 kg/m3
16139 kPa
  mass density: 1013.3 ± 1.2 kg/m3
16157 kPa
  mass density: 1013.3 ± 1.2 kg/m3
16178 kPa
  mass density: 1013.2 ± 1.2 kg/m3
16195 kPa
  mass density: 1013.3 ± 1.2 kg/m3
16214 kPa
  mass density: 1013.4 ± 1.2 kg/m3
16230 kPa
  mass density: 1013.4 ± 1.2 kg/m3
16247 kPa
  mass density: 1013.2 ± 1.2 kg/m3
16266 kPa
  mass density: 1013.4 ± 1.2 kg/m3
16282 kPa
  mass density: 1013.4 ± 1.2 kg/m3
16299 kPa
  mass density: 1013.5 ± 1.2 kg/m3
16315 kPa
  mass density: 1013.4 ± 1.2 kg/m3
16334 kPa
  mass density: 1013.3 ± 1.2 kg/m3
16351 kPa
  mass density: 1013.4 ± 1.2 kg/m3
16368 kPa
  mass density: 1013.6 ± 1.2 kg/m3
16388 kPa
  mass density: 1013.5 ± 1.2 kg/m3
16404 kPa
  mass density: 1013.4 ± 1.2 kg/m3
16421 kPa
  mass density: 1013.5 ± 1.2 kg/m3
16441 kPa
  mass density: 1013.4 ± 1.2 kg/m3
16457 kPa
  mass density: 1013.5 ± 1.2 kg/m3
16474 kPa
  mass density: 1013.5 ± 1.2 kg/m3
16491 kPa
  mass density: 1013.6 ± 1.2 kg/m3
16511 kPa
  mass density: 1013.5 ± 1.2 kg/m3
16528 kPa
  mass density: 1013.6 ± 1.2 kg/m3
16545 kPa
  mass density: 1013.6 ± 1.2 kg/m3
16565 kPa
  mass density: 1013.7 ± 1.2 kg/m3
16582 kPa
  mass density: 1013.5 ± 1.2 kg/m3
16598 kPa
  mass density: 1013.5 ± 1.2 kg/m3
16619 kPa
  mass density: 1013.6 ± 1.2 kg/m3
16636 kPa
  mass density: 1013.6 ± 1.2 kg/m3
16653 kPa
  mass density: 1013.6 ± 1.2 kg/m3
16673 kPa
  mass density: 1013.6 ± 1.2 kg/m3
16690 kPa
  mass density: 1013.7 ± 1.2 kg/m3
16707 kPa
  mass density: 1013.6 ± 1.2 kg/m3
16727 kPa
  mass density: 1013.6 ± 1.2 kg/m3
16745 kPa
  mass density: 1013.6 ± 1.2 kg/m3
16762 kPa
  mass density: 1013.6 ± 1.2 kg/m3
16782 kPa
  mass density: 1013.6 ± 1.2 kg/m3
16800 kPa
  mass density: 1013.6 ± 1.2 kg/m3
16817 kPa
  mass density: 1013.7 ± 1.2 kg/m3
16837 kPa
  mass density: 1013.7 ± 1.2 kg/m3
16854 kPa
  mass density: 1013.6 ± 1.2 kg/m3
16872 kPa
  mass density: 1013.7 ± 1.2 kg/m3
16893 kPa
  mass density: 1013.7 ± 1.2 kg/m3
16911 kPa
  mass density: 1013.8 ± 1.2 kg/m3
16929 kPa
  mass density: 1013.8 ± 1.2 kg/m3
16951 kPa
  mass density: 1013.7 ± 1.2 kg/m3
16969 kPa
  mass density: 1013.8 ± 1.2 kg/m3
16988 kPa
  mass density: 1013.8 ± 1.2 kg/m3
17008 kPa
  mass density: 1013.8 ± 1.2 kg/m3
17031 kPa
  mass density: 1013.9 ± 1.2 kg/m3
17050 kPa
  mass density: 1013.8 ± 1.2 kg/m3
17097 kPa
  mass density: 1013.8 ± 1.2 kg/m3
17099 kPa
  mass density: 1013.9 ± 1.2 kg/m3
17100 kPa
  mass density: 1013.9 ± 1.2 kg/m3
17101 kPa
  mass density: 1013.7 ± 1.2 kg/m3
17113 kPa
  mass density: 1013.8 ± 1.2 kg/m3
17138 kPa
  mass density: 1013.8 ± 1.2 kg/m3
17147 kPa
  mass density: 1013.8 ± 1.2 kg/m3
17148 kPa
  mass density: 1013.8 ± 1.2 kg/m3 and 1014 ± 1.2 kg/m3
17156 kPa
  mass density: 1013.8 ± 1.2 kg/m3
17174 kPa
  mass density: 1013.8 ± 1.2 kg/m3
17193 kPa
  mass density: 1013.9 ± 1.2 kg/m3
17211 kPa
  mass density: 1013.9 ± 1.2 kg/m3
17233 kPa
  mass density: 1013.8 ± 1.2 kg/m3
17252 kPa
  mass density: 1013.9 ± 1.2 kg/m3
17270 kPa
  mass density: 1014 ± 1.2 kg/m3
17291 kPa
  mass density: 1013.9 ± 1.2 kg/m3
17309 kPa
  mass density: 1013.8 ± 1.2 kg/m3
17331 kPa
  mass density: 1014 ± 1.2 kg/m3
17350 kPa
  mass density: 1013.9 ± 1.2 kg/m3
17373 kPa
  mass density: 1013.9 ± 1.2 kg/m3
17392 kPa
  mass density: 1014 ± 1.2 kg/m3
17411 kPa
  mass density: 1014.1 ± 1.2 kg/m3
17430 kPa
  mass density: 1014 ± 1.2 kg/m3
17453 kPa
  mass density: 1014.1 ± 1.2 kg/m3
17472 kPa
  mass density: 1014 ± 1.2 kg/m3
17491 kPa
  mass density: 1014.1 ± 1.2 kg/m3
17514 kPa
  mass density: 1014.1 ± 1.2 kg/m3
17534 kPa
  mass density: 1014.1 ± 1.2 kg/m3
17555 kPa
  mass density: 1014 ± 1.2 kg/m3
17574 kPa
  mass density: 1014.1 ± 1.2 kg/m3
17593 kPa
  mass density: 1014.1 ± 1.2 kg/m3
17616 kPa
  mass density: 1014.1 ± 1.2 kg/m3
17635 kPa
  mass density: 1014.1 ± 1.2 kg/m3
17656 kPa
  mass density: 1014 ± 1.2 kg/m3
17672 kPa
  mass density: 1014.2 ± 1.2 kg/m3
17688 kPa
  mass density: 1014.2 ± 1.2 kg/m3
17708 kPa
  mass density: 1014 ± 1.2 kg/m3
17723 kPa
  mass density: 1014.2 ± 1.2 kg/m3
17739 kPa
  mass density: 1014.3 ± 1.2 kg/m3
17758 kPa
  mass density: 1014.2 ± 1.2 kg/m3
17775 kPa
  mass density: 1014.2 ± 1.2 kg/m3
17791 kPa
  mass density: 1014.2 ± 1.2 kg/m3
17807 kPa
  mass density: 1014.3 ± 1.2 kg/m3
17827 kPa
  mass density: 1014.2 ± 1.2 kg/m3
17843 kPa
  mass density: 1014.2 ± 1.2 kg/m3
17861 kPa
  mass density: 1014.3 ± 1.2 kg/m3
17877 kPa
  mass density: 1014.2 ± 1.2 kg/m3
17892 kPa
  mass density: 1014.2 ± 1.2 kg/m3
17907 kPa
  mass density: 1014.3 ± 1.2 kg/m3
17925 kPa
  mass density: 1014.3 ± 1.2 kg/m3
17939 kPa
  mass density: 1014.3 ± 1.2 kg/m3
